Laboratory results published in ChEMBL document CHEMBL2413072, “Synthesis and in vitro anticancer studies of novel C-2 arylidene congeners of lantadenes” (2013).

Key:
Format in all cases: functional
MDA-MB-231 [1] = assay: Growth inhibition of human MDA-MB-231 cells assessed as cell growth at 10^-6 M by sulforhodamine B assay; settings: read-out: Activity
SK-OV-3 = assay: Growth inhibition of human SKOV3 cells by sulforhodamine B assay
M14 = assay: Growth inhibition of human M14 cells assessed as cell growth at 10^-7 M by sulforhodamine B assay; settings: read-out: Activity
HCT-15 = assay: Growth inhibition of human HCT15 cells by sulforhodamine B assay
RPMI-8226 = assay: Growth inhibition of human RPMI8226 cells assessed as cell growth at 10^-7 M by sulforhodamine B assay; settings: read-out: Activity
SW-620 = assay: Growth inhibition of human SW620 cells by sulforhodamine B assay
MDA-MB-231 [2] = assay: Growth inhibition of human MDA-MB-231 cells assessed as cell growth at 10^-8 M by sulforhodamine B assay; settings: read-out: Activity
T47D [3] = assay: Growth inhibition of human T47D cells by sulforhodamine B assay
UACC-257 = assay: Growth inhibition of human UACC257 cells assessed as cell growth at 10^-4 M by sulforhodamine B assay; settings: read-out: Activity
SK-MEL-5 = assay: Growth inhibition of human SK-MEL-5 cells assessed as cell growth at 10^-7 M by sulforhodamine B assay; settings: read-out: Activity
PC-3 = assay: Growth inhibition of human PC3 cells assessed as cell growth at 10^-6 M by sulforhodamine B assay; settings: read-out: Activity
COLO 205 [4] = assay: Growth inhibition of human COLO205 cells assessed as cell growth at 10^-6 M by sulforhodamine B assay; settings: read-out: Activity
HL-60(TB) [5] = assay: Growth inhibition of human HL-60(TB) cells assessed as cell growth at 10^-4 M by sulforhodamine B assay; settings: read-out: Activity
HOP-62 = assay: Growth inhibition of human HOP62 cells assessed as cell growth at 10^-8 M by sulforhodamine B assay; settings: read-out: Activity
COLO 205 [6] = assay: Growth inhibition of human COLO205 cells assessed as cell growth at 10^-4 M by sulforhodamine B assay; settings: read-out: Activity
MCF7 = assay: Growth inhibition of human MCF7 cells by sulforhodamine B assay
MDA-MB-468 = assay: Growth inhibition of human MDA-MB-468 cells by sulforhodamine B assay
OVCAR-4 = assay: Growth inhibition of human OVCAR4 cells assessed as cell growth at 10^-6 M by sulforhodamine B assay; settings: read-out: Activity
SF-268 = assay: Growth inhibition of human SF268 cells assessed as cell growth at 10^-8 M by sulforhodamine B assay; settings: read-out: Activity
HT-29 [7] = assay: Growth inhibition of human HT-29 cells assessed as cell growth at 10^-8 M by sulforhodamine B assay; settings: read-out: Activity
NCI-H322M = assay: Growth inhibition of human NCI-H322M cells assessed as cell growth at 10^-6 M by sulforhodamine B assay; settings: read-out: Activity
CAKI-1 = assay: Growth inhibition of human CAKI-1 cells assessed as cell growth at 10^-6 M by sulforhodamine B assay; settings: read-out: Activity
BT-549 = assay: Growth inhibition of human BT549 cells assessed as cell growth at 10^-4 M by sulforhodamine B assay; settings: read-out: Activity
MDA-MB-435 [8] = assay: Growth inhibition of human MDA-MB-435 cells assessed as cell growth at 10^-7 M by sulforhodamine B assay; settings: read-out: Activity
HL-60(TB) [9] = assay: Growth inhibition of human HL-60(TB) cells by sulforhodamine B assay
A549 = assay: Growth inhibition of human A549/ATCC cells by sulforhodamine B assay
786-0 [10] = assay: Growth inhibition of human 786-0 cells assessed as cell growth at 10^-4 M by sulforhodamine B assay; settings: read-out: Activity
786-0 [11] = assay: Growth inhibition of human 786-0 cells assessed as cell growth at 10^-7 M by sulforhodamine B assay; settings: read-out: Activity
NCI-H522 = assay: Growth inhibition of human NCI-H522 cells assessed as cell growth at 10^-6 M by sulforhodamine B assay; settings: read-out: Activity
NCI-H226 = assay: Growth inhibition of human NCI-H226 cells assessed as cell growth at 10^-8 M by sulforhodamine B assay; settings: read-out: Activity
HT-29 [12] = assay: Growth inhibition of human HT-29 cells by sulforhodamine B assay
SNB-19 = assay: Growth inhibition of human SNB19 cells assessed as cell growth at 10^-6 M by sulforhodamine B assay; settings: read-out: Activity
MDA-MB-435 [13] = assay: Growth inhibition of human MDA-MB-435 cells by sulforhodamine B assay
T47D [14] = assay: Growth inhibition of human T47D cells assessed as cell growth at 10^-6 M by sulforhodamine B assay; settings: read-out: Activity
OVCAR-3 = assay: Growth inhibition of human OVCAR3 cells assessed as cell growth at 10^-8 M by sulforhodamine B assay; settings: read-out: Activity
[15] = Growth inhibition of human HCC2998 cells assessed as cell growth at 10^-6 M by sulforhodamine B assay; settings: HCC 2998, read-out: Activity
MOLT-4 = assay: Growth inhibition of human MOLT4 cells assessed as cell growth at 10^-4 M by sulforhodamine B assay; settings: read-out: Activity
U-251 = assay: Growth inhibition of human U251 cells assessed as cell growth at 10^-4 M by sulforhodamine B assay; settings: read-out: Activity
[16] = read-out: LC50 (the source's name)
[17] = read-out: pLC50 (the source's name) (converted)

CC(C)=CC(=O)O[C@@H]1CC(C)(C)C[C@H]2C3=CC[C@@H]4[C@@]5(C)CCC(=O)C(C)(C)[C@@H]5CC[C@@]4(C)[C@]3(C)CC[C@@]12C(=O)O
growth at 1 µM (MDA-MB-231 [1]): 76% | GI50 (SK-OV-3; read-out: GI50): 16.6 µM | CC50 (SK-OV-3; [16]): > 100 µM | TGI (SK-OV-3; read-out: TGI): > 100 µM | GI50 (SK-OV-3; read-out: pGI50 (converted)): 16.6 µM | CC50 (SK-OV-3; [17]): > 100 µM | TGI (SK-OV-3; read-out: pTGI (converted)): > 100 µM | growth at 0.1 µM (M14): 94% | GI50 (HCT-15; read-out: GI50): 1290 nM | LC50 (50% lethal concentration) (HCT-15; read-out: LC50): > 100 µM | TGI (HCT-15; read-out: TGI): 15.6 µM | GI50 (HCT-15; read-out: pGI50 (converted)): 1290 nM | LC50 (50% lethal concentration) (HCT-15; read-out: pLC50 (converted)): > 100 µM | TGI (HCT-15; read-out: pTGI (converted)): 15.5 µM | growth at 0.1 µM (RPMI-8226): 91% | GI50 (SW-620; read-out: GI50): 4 µM | CC50 (SW-620; [16]): > 100 µM | TGI (SW-620; read-out: TGI): 36.1 µM | GI50 (SW-620; read-out: pGI50 (converted)): 3.98 µM | CC50 (SW-620; [17]): > 100 µM | TGI (SW-620; read-out: pTGI (converted)): 36.3 µM | growth at 0.01 µM (MDA-MB-231 [2]): 96% | GI50 (T47D [3]; read-out: GI50): 5.08 µM | CC50 (T47D [3]; [16]): > 100 µM | TGI (T47D [3]; read-out: TGI): > 100 µM | GI50 (T47D [3]; read-out: pGI50 (converted)): 5.13 µM | CC50 (T47D [3]; [17]): > 100 µM | TGI (T47D [3]; read-out: pTGI (converted)): > 100 µM | growth at 100 µM (UACC-257): -15% | growth at 0.1 µM (SK-MEL-5): 91% | growth at 1 µM (PC-3): 56% | growth at 1 µM (COLO 205 [4]): 103% | growth at 100 µM (HL-60(TB) [5]): -38% | growth at 0.01 µM (HOP-62): 93% | growth at 100 µM (COLO 205 [6]): -76% | GI50 (MCF7; read-out: GI50): 3.29 µM | CC50 (MCF7; [16]): > 100 µM | TGI (MCF7; read-out: TGI): > 100 µM | GI50 (MCF7; read-out: pGI50 (converted)): 3.31 µM | CC50 (MCF7; [17]): > 100 µM | TGI (MCF7; read-out: pTGI (converted)): > 100 µM | GI50 (MDA-MB-468; read-out: GI50): 2270 nM | CC50 (MDA-MB-468; [16]): > 100 µM | TGI (MDA-MB-468; read-out: TGI): 13.7 µM | GI50 (MDA-MB-468; read-out: pGI50 (converted)): 2290 nM | CC50 (MDA-MB-468; [17]): > 100 µM | TGI (MDA-MB-468; read-out: pTGI (converted)): 13.8 µM | growth at 1 µM (OVCAR-4): 83% | growth at 0.01 µM (SF-268): 96% | growth at 0.01 µM (HT-29 [7]): 101% | growth at 1 µM (NCI-H322M): 83% | growth at 1 µM (CAKI-1): 87% | growth at 100 µM (BT-549): -47% | growth at 0.1 µM (MDA-MB-435 [8]): 98% | GI50 (HL-60(TB) [9]; read-out: GI50): 2210 nM | CC50 (HL-60(TB) [9]; [16]): > 100 µM | TGI (HL-60(TB) [9]; read-out: TGI): 5.38 µM | GI50 (HL-60(TB) [9]; read-out: pGI50 (converted)): 2190 nM | CC50 (HL-60(TB) [9]; [17]): > 100 µM | TGI (HL-60(TB) [9]; read-out: pTGI (converted)): 5.37 µM | GI50 (A549; read-out: GI50): 797 nM | CC50 (A549; [16]): > 100 µM | TGI (A549; read-out: TGI): 15.6 µM | GI50 (A549; read-out: pGI50 (converted)): 794 nM | CC50 (A549; [17]): > 100 µM | TGI (A549; read-out: pTGI (converted)): 15.5 µM | growth at 100 µM (786-0 [10]): -42% | growth at 0.1 µM (786-0 [11]): 99% | growth at 1 µM (NCI-H522): 82% | growth at 0.01 µM (NCI-H226): 95% | GI50 (HT-29 [12]; read-out: GI50): 3.94 µM | LC50 (50% cell kill) (HT-29 [12]; read-out: LC50): > 100 µM | TGI (HT-29 [12]; read-out: TGI): 32.3 µM | GI50 (HT-29 [12]; read-out: pGI50 (converted)): 3.98 µM | LC50 (50% cell kill) (HT-29 [12]; read-out: pLC50 (converted)): > 100 µM | TGI (HT-29 [12]; read-out: pTGI (converted)): 32.4 µM | growth at 1 µM (SNB-19): 87% | GI50 (MDA-MB-435 [13]; read-out: GI50): 6.22 µM | CC50 (MDA-MB-435 [13]; [16]): > 100 µM | TGI (MDA-MB-435 [13]; read-out: TGI): > 100 µM | GI50 (MDA-MB-435 [13]; read-out: pGI50 (converted)): 6.17 µM | CC50 (MDA-MB-435 [13]; [17]): > 100 µM | TGI (MDA-MB-435 [13]; read-out: pTGI (converted)): > 100 µM | growth at 1 µM (T47D [14]): 92% | growth at 0.01 µM (OVCAR-3): 104% | growth at 1 µM [15]: 88% | growth at 100 µM (MOLT-4): -21% | growth at 100 µM (U-251): -49%
